Here are results for four molecules from US20230119502A1, “Collagen Nucleation Inhibitors” (Northeastern University, priority 2020, published 2023).

In brackets after ≈: the same amount, converted by molar mass. Where two headings read alike, the source gives them in different places.

The target of series [1] is T1, pre-existing A546-labeled collagen network (Bos taurus, UniProt P02453+P02465).
T1 construct: acetic acid-extracted bovine type I collagen; purchased Advanced Biomatrix 5026-1 KIT; host or cells: extracted from bovine tissue, then labelled in house
Nature of the series: Dual-fluorescence incorporation of soluble collagen into a pre-existing collagen network (colocalization, PCC). Type of series: biochemical, bovine. As to conditions: 0.5 M GlcNAc, 0.5 M Gal or 1 M GlucA; 0.025 mg/mL collagen, 1 hour, 37° C., n=10 images. From the text:
Collagen was fluorescently labeled by the following procedure. Collagen was amine-labeled with either Alexa Fluor 546 NHS Ester (Thermo Fisher Scientific, A20002) or Alexa Fluor 488 TFP (Thermo Fisher Scientific, A30005) according to the protocol of Paten et al. (Paten, J. A., et al., 2019). Collagen was labeled with A488 solution in a 5:1 molar ratio of A488:collagen and then purified using a 10,000 MWCO Slide-A-Lyzer dialysis cassette (Thermo Fisher Scientific, 66380). The same process was performed with A546 in a 5:1 molar ratio of A546:collagen. Prior to use, the collagen concentration was determined by a modified Lowry assay (Bio-Rad, DC-Protein Assay), and the labeling efficiency was determined according to previous reports (Paten, J. A., et al., 2019).
To test if the critical saccharide concentrations would allow the soluble collagen to incorporate into a pre-existing matrix, despite the observed nucleation inhibition, first a collagen network was polymerized labeled with a A546 (red) at 37° C. using the example procedure described above. Then a mixture of A488-labeled collagen (green) with a nucleation-inhibiting concentration of either GlcNAc, Gal, or GlucA was added to the pre-existing A546-labeled collagen network. In all cases, distinct fibrillar networks of A488-collagen after a 1 hour incubation and exhaustive rinsing to reduce non-specific binding was observed.
The ability for soluble collagen to incorporate into a pre-established collagen network in the presence of monosaccharides was investigated with fluorescent imaging using an inverted microscope (Nikon, ECLIPSE Ti2) with a 0.45 numerical aperture 20× objective (Nikon, MRH08230) and a CMOS camera (Andor, Zyla 4.2). […]
The Imaging and Colocalization Analysis of the Dual-Fluorescence collagen Network was conducted using the following procedure. For imaging the A546-labeled collagen network, the excitation signal (CoolLED, PE-300-W-L-SB-40) was passed through a 530±15 nm filter, and the emission signal was detected after passing through a 575±20 nm filter (Chroma Technology, 49014). […]

Series [2] in a line: Baseline absorbance of the monosaccharide solutions without collagen. The class given is physicochemical. As to conditions: 313 nm, 37° C., no collagen, n=3. From the text:
No collagen was present in these samples.

Another series in a line: physchem. The following applies: 37 °C, pH 5, aqueous buffer.
In series [3] the target is pre-established 1 mg/mL collagen networks (Bos taurus, UniProt P02453+P02465). The following applies: 37° C., 180 minutes, critical concentration.
In series [4] the target is T2, acetic acid-extracted bovine type I collagen (Bos taurus, UniProt P02453+P02465).
T2 construct: acetic acid-extracted bovine type I collagen; purchased Advanced Biomatrix 5026-1 KIT
The class given is biochemical. The following applies: for critical concentration at which collagen assembly was completely inhibited / effect on collagen assembly kinetics and ODmax / lag time (lag phase at 30% assembly) / effect on collagen assembly: 1 mg/mL collagen; for critical concentration at which collagen assembly was completely inhibited: 37° C., pH 7.3; for effect on collagen assembly kinetics and ODmax: 0.125 M; for lag time (lag phase at 30% assembly): 0.25 M total saccharide; for effect on collagen assembly: 0.5 M (each component 0.5 M for Gal with acetic acid; 0.5 M total for ratios); for Rates of Collagen Assembly (KA), 30% to 70%: n=9, ± SD. The procedure: In the experiments below, acetic acid-extracted bovine type I collagen (Advanced Biomatrix, 5026-1 KIT) was mixed with monosaccharide solutions, and/or acetic acid, such that the final collagen concentration was either 0.5 or 1 mg/mL and final saccharide concentration ranged from 0-1 M. Concentrated Tris-buffered saline (10×TBS) at 0.25 M trizma base (Sigma Aldrich, T4661) and 1.3 M sodium chloride
(Fisher Chemical, S271-500), was used as 10% of the solution volume to maintain a physiological pH and ionic strength, and 0.25 M sodium hydroxide was used for a final pH adjustment to 7.3. Any remaining volume in the solution recipes was fulfilled via the addition of deionized water.
Experiments included mixing collagen with a concentrated monosaccharide solution, neutralizing it, and measuring turbidity spectrophotometrically (313 nm) over the course of two hours. In the absence of monosaccharides, 1 mg/mL collagen fully polymerized within minutes, as expected (Williams, B. R., et al., 1978). […] The increased ODmax caused by the monosaccharides cannot be fully attributed to the contribution of the monosaccharides in solution (Table 2) (Hayashi & Nagai, 1972; Wood & Keech, 1960).
To study the assembly of collagen, the kinetics of collagen assembly in the presence of monosaccharides were monitored using a plate-reader spectrophotometer (Molecular Devices, SpectraMax M5). Working in triplicate, 100 μL of the mixed collagen and saccharide solution was pipetted into a 96-well plate and layered with 100 μL of silicone oil to prevent evaporation. […] Each test condition was repeated three times for a total of n=9 data sets.
The analyze the assembly kinetics, turbidity assays were analyzed and normalized between 0-1 using Equation 1, where OD represents the optical density.
To analyze the kinetics, 0% assembly was defined as the absorbance value when the minimum absorbance was recorded, and 100% corresponded to the maximum value. 10, 30, 70 and 90% absorbance and corresponding timepoints were calculated using linear interpolation between the two bounding data points. Error bars were calculated as standard error of the mean. Rate of assembly was determined by calculating the slope between 30% and 70% assembly for each data set.

Series [5] is described as follows: Stock solutions made near maximum solubility. As to conditions: 37 °C, pH 5, aqueous buffer.
The conditions of series [6]: carboxylic acid of GlucA; cited from earlier work.
The mark [7] stands for this setting: collagen 0.5 mg/mL, 0.125M saccharide.
The mark [8] stands for this setting: collagen 0.5 mg/mL, 0.25M saccharide.
Where [9] appears, read: collagen 1 mg/mL, 0.125M saccharide.
[10] abbreviates: collagen 1 mg/mL, 0.25M saccharide.

T2 sequence (P02453 162-1217 limits assumed): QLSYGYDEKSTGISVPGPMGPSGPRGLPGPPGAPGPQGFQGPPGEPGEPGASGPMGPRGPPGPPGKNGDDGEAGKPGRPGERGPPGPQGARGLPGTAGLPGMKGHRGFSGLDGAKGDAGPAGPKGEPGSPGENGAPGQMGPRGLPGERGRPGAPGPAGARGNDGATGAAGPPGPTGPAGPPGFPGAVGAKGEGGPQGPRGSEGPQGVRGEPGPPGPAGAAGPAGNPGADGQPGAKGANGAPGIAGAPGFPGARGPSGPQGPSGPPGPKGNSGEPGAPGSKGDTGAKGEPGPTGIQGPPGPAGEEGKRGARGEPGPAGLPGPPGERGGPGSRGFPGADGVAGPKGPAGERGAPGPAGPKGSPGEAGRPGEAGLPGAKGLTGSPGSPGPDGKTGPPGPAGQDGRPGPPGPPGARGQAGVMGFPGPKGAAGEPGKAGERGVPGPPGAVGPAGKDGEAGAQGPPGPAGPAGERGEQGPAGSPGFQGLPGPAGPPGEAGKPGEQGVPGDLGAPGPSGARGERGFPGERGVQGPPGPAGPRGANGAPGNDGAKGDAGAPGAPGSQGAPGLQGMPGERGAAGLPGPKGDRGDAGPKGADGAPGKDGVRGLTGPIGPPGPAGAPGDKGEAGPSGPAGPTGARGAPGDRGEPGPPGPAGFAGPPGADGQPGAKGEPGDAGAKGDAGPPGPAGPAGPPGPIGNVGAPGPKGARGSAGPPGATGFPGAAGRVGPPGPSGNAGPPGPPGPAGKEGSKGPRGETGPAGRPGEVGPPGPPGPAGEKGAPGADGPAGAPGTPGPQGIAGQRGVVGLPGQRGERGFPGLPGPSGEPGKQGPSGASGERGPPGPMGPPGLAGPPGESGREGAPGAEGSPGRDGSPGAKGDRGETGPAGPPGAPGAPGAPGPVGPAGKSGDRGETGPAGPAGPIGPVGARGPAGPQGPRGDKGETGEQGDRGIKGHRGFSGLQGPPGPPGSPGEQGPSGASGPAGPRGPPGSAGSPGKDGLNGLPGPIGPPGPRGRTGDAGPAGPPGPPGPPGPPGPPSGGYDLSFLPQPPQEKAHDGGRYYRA
T2 sequence (P02465 80-1117 limits assumed): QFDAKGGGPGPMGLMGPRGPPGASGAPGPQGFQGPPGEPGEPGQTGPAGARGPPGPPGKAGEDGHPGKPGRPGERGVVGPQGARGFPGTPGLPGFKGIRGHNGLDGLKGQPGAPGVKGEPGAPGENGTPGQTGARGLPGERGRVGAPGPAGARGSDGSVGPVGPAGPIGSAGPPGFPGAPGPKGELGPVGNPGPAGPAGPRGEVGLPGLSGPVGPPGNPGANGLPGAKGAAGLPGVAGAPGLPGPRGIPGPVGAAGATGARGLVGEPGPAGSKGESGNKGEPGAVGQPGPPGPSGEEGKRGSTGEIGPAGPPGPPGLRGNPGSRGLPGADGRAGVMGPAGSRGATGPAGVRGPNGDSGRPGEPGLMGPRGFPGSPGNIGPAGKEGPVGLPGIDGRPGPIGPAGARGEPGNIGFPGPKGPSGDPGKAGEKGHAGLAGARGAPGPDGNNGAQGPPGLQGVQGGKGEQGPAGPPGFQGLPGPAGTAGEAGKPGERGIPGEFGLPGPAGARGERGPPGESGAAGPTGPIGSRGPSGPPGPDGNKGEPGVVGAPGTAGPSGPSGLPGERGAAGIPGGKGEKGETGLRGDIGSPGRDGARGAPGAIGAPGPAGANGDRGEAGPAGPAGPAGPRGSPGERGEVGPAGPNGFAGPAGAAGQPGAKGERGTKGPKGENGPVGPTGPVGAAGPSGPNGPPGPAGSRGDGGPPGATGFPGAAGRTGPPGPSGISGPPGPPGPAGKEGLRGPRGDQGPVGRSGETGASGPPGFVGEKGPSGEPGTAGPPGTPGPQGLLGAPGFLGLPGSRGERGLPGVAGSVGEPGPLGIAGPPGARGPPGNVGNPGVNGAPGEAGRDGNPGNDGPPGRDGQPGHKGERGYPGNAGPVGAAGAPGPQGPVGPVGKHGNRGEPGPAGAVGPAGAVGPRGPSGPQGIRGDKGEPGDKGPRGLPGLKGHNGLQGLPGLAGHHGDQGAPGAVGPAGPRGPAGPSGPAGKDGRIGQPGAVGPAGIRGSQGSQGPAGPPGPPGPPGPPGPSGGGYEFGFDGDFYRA
T1 sequence (P02453 162-1217 limits assumed): as the sequence (P02453 162-1217 limits assumed) above
T1 sequence (P02465 80-1117 limits assumed): as the sequence (P02465 80-1117 limits assumed) above
Chain of pre-established 1 mg/mL collagen networks (P02453 162-1217 limits assumed): as the sequence (P02453 162-1217 limits assumed) above
Chain of pre-established 1 mg/mL collagen networks (P02465 80-1117 limits assumed): as the sequence (P02465 80-1117 limits assumed) above

`O=C[C@H](O)[C@@H](O)[C@@H](O)[C@H](O)CO` [Gal, D(+)-galactose]: the “Pearson's correlation coefficient (PCC) of incorporated A488-collagen with pre-established network” value (from here on “Pearson's correlation coefficient (PCC)”) in series [1] is listed as 0.53±0.11. Further, the Baseline absorbance in series [2] (0.125M saccharide) was determined as 0.041 ± 0.001; in series [2] (0.25M saccharide) it was 0.043 ± 0.001; in series [2] (0.5M saccharide), 0.044 ± 0.001. Further, the solubility in the series “physchem” was approximately 2000 mM (≈ 360 mg/mL). The “change in the collagen network under inverted microscope” value in series [3] is reported as “minimal to no change”. In addition, in series [4], the “critical concentration at which collagen assembly was completely inhibited” value is 0.5 M. For the same molecule, in series [4], the “effect on collagen assembly kinetics and ODmax” value is “a delay in the lag phase and growth phase and an increase in the maximum absorbance (ODmax)”. The “lag time (lag phase at 30% assembly)” value in series [4] came out at 15 ± 0.6 min. The “effect on collagen assembly” value in series [4] is “completely inhibited collagen assembly”. Moreover, the “Rates of Collagen Assembly (KA), 30% to 70%” value (from here on “Rates … to 70%”) in series [4] (setting [7]) was determined as 14.28 ± 1.48% per second; in series [4] (setting [8]) it was 7.22 ± 0.89% per second; in series [4] (setting [9]) it was 28.71 ± 1.54% per second; in series [4] (setting [10]) it was 15.96 ± 1.39% per second.
As to `CC(=O)N[C@H]1C(O)O[C@H](CO)[C@@H](O)[C@@H]1O` (stereo partly drawn) [GlcNAc, N-acetyl-D-glucosamine], the “Pearson's correlation coefficient (PCC)” value in series [1] turned out to be 0.66±0.10. Moreover, the results for the Baseline absorbance in series [2] (0.125M saccharide), in series [2] (0.25M saccharide) and in series [2] (0.5M saccharide) were 0.061 ± 0.001, 0.074 ± 0.001 and 0.105 ± 0.001, respectively. The solubility in “physchem” was approximately 1000 mM (≈ 221 mg/mL). In addition, the “critical concentration at which collagen assembly was completely inhibited” value in series [4] turned out to be 0.5 M. Besides, in series [4], the “effect on collagen assembly kinetics and ODmax” value is “a delay in the lag phase and growth phase and an increase in the maximum absorbance (ODmax)”. The “lag time (lag phase at 30% assembly)” value in series [4] turned out to be 16 ± 2.5 min. Besides, the “Rates … to 70%” value was 13.32 ± 0.63% per second in series [4] (setting [7]), 6.77 ± 0.31% per second in series [4] (setting [8]), 17.91 ± 1.52% per second in series [4] (setting [9]) and 8.27 ± 0.54% per second in series [4] (setting [10]).
Turning to `O.O=C[C@H](O)[C@@H](O)[C@H](O)[C@H](O)C(=O)[O-].[Na+]` [GlucA, D-glucuronic acid sodium salt monohydrate], the solubility in series [5] is approximately 2000 mM. In addition, the “Pearson's correlation coefficient (PCC)” value in series [1] is on record as 0.50±0.11. Moreover, the pKa in series [6] is reported as 3.2. Moreover, the figures for the Baseline absorbance in series [2] (0.25M saccharide), in series [2] (0.5M saccharide) and in series [2] (1M saccharide) were 0.063 ± 0.000, 0.082 ± 0.001 and 0.120 ± 0.000, respectively. Moreover, in series [4], the “critical concentration at which collagen assembly was completely inhibited” value is 1 M. Besides, the “Rates … to 70%” value in series [4] (setting [8]) is on record as 6.84 ± 0.47% per second; in series [4] (collagen 0.5 mg/mL, 0.5M saccharide), 10.69 ± 0.53% per second; in series [4] (setting [10]), 13.83 ± 1.10% per second; in series [4] (collagen 1 mg/mL, 0.5M saccharide), 40.64 ± 2.59% per second.
With `CC(=O)O` [acetic acid, reference compound], the “effect on collagen assembly” value in series [4] is recorded as “little impact on the early kinetics but significantly reduced the steady-state absorbance”.

What is called solubility is how much of the substance goes into solution per volume. Higher therefore signals a readily soluble substance. What is called pKa is the negative logarithm of the acid dissociation constant.
